# In patent publication US7851410B2, “Herbicidal composition” (FMC Corporation, priority 2006, dated 2010):
# Experiments:
# Type in all cases: in vivo
# Goose Grass = experiment: Pre-emergent herbicidal evaluation on Goose Grass (field plots, spray)
# Description: (§1) Test compositions were prepared by dilution of a 65% water-soluble granule (65 WG) formulation of 2,4-dinitro-N^3,N^3-dipropyl-6-(trifluoromethyl)-1,3-benzenediamine in a spray tank that provided the appropriate application rate of 2,4-dinitro-N^3,N^3-dipropyl-6-(trifluoromethyl)-1,3-benzenediamine. Test compositions were also prepared by dilution of a 80% wettable powder (80 WP) formulation of N-[2,4-dichloro-5-[4-(difluoromethyl)-4,5-dihydro-3-methyl-5-oxo-1H-1,2,4-triazol-1-yl]phenyl]methanesulfonamide in a spray tank that provided the appropriate application rate of N-[2,4-dichloro-5-[4-(difluoromethyl)-4,5-dihydro-3-methyl-5-oxo-1H-1,2,4-triazol-1-yl]phenyl]methanesulfonamide. In addition, test compositions were prepared containing mixtures of a 65% water-soluble granule (65 WG) formulation of 2,4-dinitro-N^3,N^3-dipropyl-6-(trifluoromethyl)-1,3-benzenediamine and a 80% wettable powder (80 WP) formulation of N-[2,4-dichloro-5-[4-(difluoromethyl)-4,5-dihydro-3-methyl-5-oxo-1H-1,2,4-triazol-1-yl]phenyl]methanesulfonamide with water that provided the specified rates of the two herbicides.
# (§2) The application of each test composition was performed with pressurized back-pack sprayers, calibrated to spray between 10 and 15 gallons per acre.
# (§3) The experimental design used randomized plots with one pre-emergent treatment either the day of planting or the day after planting and four to eight replications per test trial. The size of each experimental plot was 6 feet by 30 feet.
# Percent control of the weed (Goose Grass) was evaluated and averaged in each experimental plot at 14 days after treatment (DAT) of each test rate.
# (§4) The results, shown as an average of the replications, were compared with results observed in untreated control plots in the same trials.
# Annual Blue Grass = experiment: Pre-emergent herbicidal evaluation on Annual Blue Grass (field plots, spray)
# Description: as §1, §2, §3
# Percent control of the weed (Annual Blue Grass) was evaluated and averaged in each experimental plot at 14 days after treatment (DAT) of each test rate.
# as §4
# Johnson Grass = experiment: Pre-emergent herbicidal evaluation on Johnson Grass (field plots, spray)
# Description: as §1, §2, §3
# Percent control of the weed (Johnson Grass) was evaluated and averaged in each experimental plot at 14 days after treatment (DAT) of each test rate.
# as §4
# Green Foxtail = experiment: Pre-emergent herbicidal evaluation on Green Foxtail (field plots, spray)
# Description: as §1, §2, §3
# Percent control of the weed (Green Foxtail) was evaluated and averaged in each experimental plot at 14 days after treatment (DAT) of each test rate.
# as §4
# Spurge = experiment: Pre-emergent herbicidal evaluation on Spurge (field plots, granular fertilizer compositions)
# Description: Test compositions were prepared of i) a granular fertilizer and 2,4-dinitro-N^3,N^3-dipropyl-6-(trifluoromethyl)-1,3-benzenediamine, and ii) a granular fertilizer and N-[2,4-dichloro-5-[4-(difluoromethyl)-4,5-dihydro-3-methyl-5-oxo-1H-1,2,4-triazol-1-yl]phenyl]methanesulfonamide. The test compositions were prepared to provide the desired application rates of 2,4-dinitro-N^3,N^3-dipropyl-6-(trifluoromethyl)-1,3-benzenediamine and N-[2,4-dichloro-5-[4-(difluoromethyl)-4,5-dihydro-3-methyl-5-oxo-1H-1,2,4-triazol-1-yl]phenyl]methanesulfonamide. In addition, test compositions were prepared containing mixtures of 2,4-dinitro-N^3,N^3-dipropyl-6-(trifluoromethyl)-1,3-benzenediamine and N-[2,4-dichloro-5-[4-(difluoromethyl)-4,5-dihydro-3-methyl-5-oxo-1H-1,2,4-triazol-1-yl]phenyl]methanesulfonamide with granular fertilizer that provided the specified rates of the two herbicides.
# The experimental design used randomized plots with one pre-emergent treatment either the day of planting or the day after planting and three to four replications per test trial. The size of each experimental plot was 6 feet by 30 feet.
# Percent control of the weed (Spurge) was evaluated and averaged in each experimental plot at 70 days after treatment (DAT) of each test rate.
# as §4
# Barnyard Grass = experiment: Pre-emergent herbicidal evaluation on Barnyard Grass (field plots, spray)
# Description: as §1, §2, §3
# Percent control of the weed (Barnyard Grass) was evaluated and averaged in each experimental plot at 14 days after treatment (DAT) of each test rate.
# as §4
smiles,measurement,setting,value
"Cc1nn(-c2cc(NS(C)(=O)=O)c(Cl)cc2Cl)c(=O)n1C(F)F [A, N-[2,4-dichloro-5-[4-(difluoromethyl)-4,5-dihydro-3-methyl-5-oxo-1H-1,2,4-triazol-1-yl]phenyl]methanesulfonamide]",Control @ 14 DAT,Goose Grass; 0.06 lb AI/Acre,49%
same,Control @ 14 DAT,Goose Grass; 0.12 lb AI/Acre,69%
same,Control @ 14 DAT,Goose Grass; 0.19 lb AI/Acre,77%
same,Control @ 14 DAT,Goose Grass; 0.25 lb AI/Acre,79%
same,Control @ 14 DAT,Annual Blue Grass; 0.06 lb AI/Acre,37%
same,Control @ 14 DAT,Annual Blue Grass; 0.12 lb AI/Acre,47%
same,Control @ 14 DAT,Annual Blue Grass; 0.19 lb AI/Acre,62%
same,Control @ 14 DAT,Annual Blue Grass; 0.25 lb AI/Acre,60%
same,Control @ 14 DAT,Johnson Grass; 0.06 lb AI/Acre,42%
same,Control @ 14 DAT,Johnson Grass; 0.12 lb AI/Acre,67%
same,Control @ 14 DAT,Johnson Grass; 0.19 lb AI/Acre,65%
same,Control @ 14 DAT,Johnson Grass; 0.25 lb AI/Acre,70%
same,Control @ 14 DAT,Green Foxtail; 0.06 lb AI/Acre,62%
same,Control @ 14 DAT,Green Foxtail; 0.12 lb AI/Acre,76%
same,Control @ 14 DAT,Green Foxtail; 0.19 lb AI/Acre,93%
same,Control @ 14 DAT,Green Foxtail; 0.25 lb AI/Acre,97%
same,Control @ 70 DAT,Spurge; 0.125 lb AI/Acre,0%
same,Control @ 70 DAT,Spurge; 0.250 lb AI/Acre,6%
same,Control @ 70 DAT,Spurge; 0.375 lb AI/Acre,6%
same,Control @ 14 DAT,Barnyard Grass; 0.06 lb AI/Acre,55%
same,Control @ 14 DAT,Barnyard Grass; 0.12 lb AI/Acre,80%
same,Control @ 14 DAT,Barnyard Grass; 0.19 lb AI/Acre,88%
same,Control @ 14 DAT,Barnyard Grass; 0.25 lb AI/Acre,93%
"CCCN(CCC)c1c([N+](=O)[O-])cc(C(F)(F)F)c(N)c1[N+](=O)[O-] [B, 2,4-dinitro-N^3,N^3-dipropyl-6-(trifluoromethyl)-1,3-benzenediamine]",Control @ 14 DAT,Goose Grass; 0.12 lb AI/Acre,76%
same,Control @ 14 DAT,Goose Grass; 0.25 lb AI/Acre,99%
same,Control @ 14 DAT,Goose Grass; 0.50 lb AI/Acre,100%
same,Control @ 14 DAT,Annual Blue Grass; 0.12 lb AI/Acre,45%
same,Control @ 14 DAT,Annual Blue Grass; 0.25 lb AI/Acre,38%
same,Control @ 14 DAT,Annual Blue Grass; 0.50 lb AI/Acre,58%
same,Control @ 14 DAT,Johnson Grass; 0.12 lb AI/Acre,42%
same,Control @ 14 DAT,Johnson Grass; 0.25 lb AI/Acre,48%
same,Control @ 14 DAT,Johnson Grass; 0.50 lb AI/Acre,77%
same,Control @ 14 DAT,Green Foxtail; 0.12 lb AI/Acre,87%
same,Control @ 14 DAT,Green Foxtail; 0.25 lb AI/Acre,91%
same,Control @ 14 DAT,Green Foxtail; 0.50 lb AI/Acre,95%
same,Control @ 70 DAT,Spurge; 0.50 lb AI/Acre,42%
same,Control @ 70 DAT,Spurge; 0.75 lb AI/Acre,70%
same,Control @ 70 DAT,Spurge; 1.00 lb AI/Acre,60%
same,Control @ 14 DAT,Barnyard Grass; 0.12 lb AI/Acre,63%
same,Control @ 14 DAT,Barnyard Grass; 0.25 lb AI/Acre,69%
same,Control @ 14 DAT,Barnyard Grass; 0.50 lb AI/Acre,86%
